The text below walks through data of BindingDB's records for patent US20240262804 (Hansoh Bio, 2024).

T1 sequence (Q9BE39 whole entry, looked up): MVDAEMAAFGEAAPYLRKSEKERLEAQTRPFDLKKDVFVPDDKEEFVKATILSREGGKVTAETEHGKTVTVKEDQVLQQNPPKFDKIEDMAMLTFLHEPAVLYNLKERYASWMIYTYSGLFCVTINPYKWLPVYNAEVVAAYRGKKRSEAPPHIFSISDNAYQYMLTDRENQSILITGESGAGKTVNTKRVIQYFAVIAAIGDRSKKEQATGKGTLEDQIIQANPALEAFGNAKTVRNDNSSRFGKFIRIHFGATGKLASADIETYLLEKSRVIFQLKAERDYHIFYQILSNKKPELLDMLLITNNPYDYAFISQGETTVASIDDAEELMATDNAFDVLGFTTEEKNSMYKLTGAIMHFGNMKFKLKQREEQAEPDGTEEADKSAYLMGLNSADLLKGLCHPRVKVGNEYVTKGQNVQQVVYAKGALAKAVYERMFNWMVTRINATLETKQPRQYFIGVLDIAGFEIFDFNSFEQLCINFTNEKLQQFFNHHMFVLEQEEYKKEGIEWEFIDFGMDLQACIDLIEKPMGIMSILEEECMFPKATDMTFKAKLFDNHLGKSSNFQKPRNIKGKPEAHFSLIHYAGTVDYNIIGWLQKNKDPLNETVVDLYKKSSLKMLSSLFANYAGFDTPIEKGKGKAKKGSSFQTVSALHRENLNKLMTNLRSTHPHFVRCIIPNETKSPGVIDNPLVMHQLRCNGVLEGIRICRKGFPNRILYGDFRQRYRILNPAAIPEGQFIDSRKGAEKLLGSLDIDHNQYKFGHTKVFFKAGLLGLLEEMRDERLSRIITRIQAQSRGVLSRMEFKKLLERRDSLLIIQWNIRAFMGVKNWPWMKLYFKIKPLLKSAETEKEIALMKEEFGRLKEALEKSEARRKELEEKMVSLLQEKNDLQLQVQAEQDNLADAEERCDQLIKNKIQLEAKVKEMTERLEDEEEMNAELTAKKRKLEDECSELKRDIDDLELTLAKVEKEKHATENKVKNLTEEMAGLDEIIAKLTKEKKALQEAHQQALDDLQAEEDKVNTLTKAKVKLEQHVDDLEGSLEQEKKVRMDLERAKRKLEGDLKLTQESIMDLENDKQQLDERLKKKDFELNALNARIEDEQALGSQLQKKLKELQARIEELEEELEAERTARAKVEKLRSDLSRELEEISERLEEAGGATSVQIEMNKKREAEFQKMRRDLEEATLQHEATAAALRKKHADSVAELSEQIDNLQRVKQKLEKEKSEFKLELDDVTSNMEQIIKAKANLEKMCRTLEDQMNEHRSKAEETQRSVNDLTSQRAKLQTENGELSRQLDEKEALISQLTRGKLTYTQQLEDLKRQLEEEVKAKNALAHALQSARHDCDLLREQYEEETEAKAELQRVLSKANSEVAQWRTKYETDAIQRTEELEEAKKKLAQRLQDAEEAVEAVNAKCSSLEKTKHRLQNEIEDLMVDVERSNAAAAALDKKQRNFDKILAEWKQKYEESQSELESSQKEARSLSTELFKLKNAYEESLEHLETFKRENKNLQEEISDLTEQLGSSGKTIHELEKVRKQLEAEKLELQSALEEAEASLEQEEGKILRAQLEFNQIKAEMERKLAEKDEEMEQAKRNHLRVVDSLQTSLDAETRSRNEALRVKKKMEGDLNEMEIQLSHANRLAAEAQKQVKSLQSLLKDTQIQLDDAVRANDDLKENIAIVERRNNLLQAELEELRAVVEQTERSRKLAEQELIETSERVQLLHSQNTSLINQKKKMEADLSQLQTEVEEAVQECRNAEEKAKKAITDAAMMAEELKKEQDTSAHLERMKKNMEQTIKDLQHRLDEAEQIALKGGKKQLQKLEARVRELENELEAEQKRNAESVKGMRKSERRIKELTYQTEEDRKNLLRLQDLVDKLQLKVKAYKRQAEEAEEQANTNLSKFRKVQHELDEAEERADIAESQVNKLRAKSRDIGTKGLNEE

This assay addresses T1, Myosin-7 (Bos taurus, UniProt Q9BE39).
T1 construct: gene MYH7
Put plainly: Biochemical Assay. As for the experimental part: In our experiments, bovine skinned cardiac myofibrils were isolated from the frozen bovine left ventricle as myosin's source in the ATPase assay. […] 75 μL of a solution containing bovine cardiac myofibrils, PK/LDH, and calcium were added to a 96 well plate for a 7 point dose-response. In some circumstances, 10 point-response was used to repeat the ATPase assays on compounds of interest. Compounds were added to the myofibrils solution and incubated for 5 minutes. The enzymatic reaction was started with the addition of 75 μL of a solution containing ATP, PEP, NADH, compounds, and calcium. The ATPase activity was measured by reading absorbance at 340 nm in a PerkinElmer Victor Nivo plate reader at 25° C. in kinetic mode for 15 minutes using clear bottom plates. The slopes of the absorbance changes as a function of time for the first 10 minutes were normalized to slopes on the control wells containing all reagents, including DMSO, but without compounds.
Consider `CC(C)C(O)c1cccc([C@H](C)Nc2nc(=O)n(C3CCOCC3)c(=O)[nH]2)c1` (some centres undefined) [US20240262804, Example 9], for which the IC50 (in general, the midpoint of a concentration-inhibition curve) stood at 1.18 µM. This lies in the single-digit micromolar range. For `C[C@H](Nc1nc(=O)n(C2CCOCC2)c(=O)[nH]1)c1ccc(F)cc1Cl` [US20240262804, Example 162], half-maximal inhibition (IC50) required 1.21 µM. In turn, `C[C@H](Nc1nc(=O)n(CC(F)(F)F)c(=O)[nH]1)c1ccc(Cl)c(Cl)c1` [US20240262804, Example 173] came in with an IC50 of 2.85 µM. In the case of `C[C@H](Nc1nc(=O)n(C2CCOCC2)c(=O)[nH]1)c1cc(Cl)ccc1Cl` [US20240262804, Example 163], half-maximal inhibition (IC50) required 0.93 µM. The result for `Cc1nn(C)cc1-c1cccc([C@H](C)Nc2nc(=O)n(C3CCOCC3)c(=O)[nH]2)c1` [US20240262804, Example 5] reads 3.59 µM; that for `C[C@H](Nc1nc(=O)n(-c2ccccc2)c(=O)[nH]1)C1CCCCC1` [US20240262804, Example 1], 8.05 µM; that for `Cc1ccn(-c2cccc([C@H](C)Nc3nc(=O)n(C4CCOCC4)c(=O)[nH]3)c2)n1` [US20240262804, Example 6], 4.01 µM. The molecule `Cc1cccc([C@H](C)Nc2nc(=O)n(C3CCOCC3)c(=O)[nH]2)c1` [US20240262804, Example 4] yielded a 50% inhibitory concentration (IC50) of 0.8 µM. The molecule `C[C@H](Nc1nc(=O)n(C2CCOCC2)c(=O)[nH]1)c1cccc(C(C)(C)O)c1` [US20240262804, Example 8] registered an IC50 of 2.46 µM.
